Experimental data: patent US7468357B2, “Nucleosides with anti-hepatitis B virus activity” (Emory University, priority 1994, dated 2008)
Read-outs that look alike come from different tables or passages of the source. Blank lines part the entries; values can stand above or below the compound they belong to.

Key:
human DNA polymerase β = human DNA polymerase β (Homo sapiens, UniProt P06746); experiment: Inhibition of human DNA polymerase β by triphosphates; format: biochemical; conditions: read-out: DNA Pol β Ki
human DNA polymerase α = target: T1, human DNA polymerase α (Homo sapiens, UniProt P09884); experiment: Inhibition of human DNA polymerase α by triphosphates; format: biochemical; conditions: read-out: DNA Pol α Ki
T1 sequence (P09884 1-1462): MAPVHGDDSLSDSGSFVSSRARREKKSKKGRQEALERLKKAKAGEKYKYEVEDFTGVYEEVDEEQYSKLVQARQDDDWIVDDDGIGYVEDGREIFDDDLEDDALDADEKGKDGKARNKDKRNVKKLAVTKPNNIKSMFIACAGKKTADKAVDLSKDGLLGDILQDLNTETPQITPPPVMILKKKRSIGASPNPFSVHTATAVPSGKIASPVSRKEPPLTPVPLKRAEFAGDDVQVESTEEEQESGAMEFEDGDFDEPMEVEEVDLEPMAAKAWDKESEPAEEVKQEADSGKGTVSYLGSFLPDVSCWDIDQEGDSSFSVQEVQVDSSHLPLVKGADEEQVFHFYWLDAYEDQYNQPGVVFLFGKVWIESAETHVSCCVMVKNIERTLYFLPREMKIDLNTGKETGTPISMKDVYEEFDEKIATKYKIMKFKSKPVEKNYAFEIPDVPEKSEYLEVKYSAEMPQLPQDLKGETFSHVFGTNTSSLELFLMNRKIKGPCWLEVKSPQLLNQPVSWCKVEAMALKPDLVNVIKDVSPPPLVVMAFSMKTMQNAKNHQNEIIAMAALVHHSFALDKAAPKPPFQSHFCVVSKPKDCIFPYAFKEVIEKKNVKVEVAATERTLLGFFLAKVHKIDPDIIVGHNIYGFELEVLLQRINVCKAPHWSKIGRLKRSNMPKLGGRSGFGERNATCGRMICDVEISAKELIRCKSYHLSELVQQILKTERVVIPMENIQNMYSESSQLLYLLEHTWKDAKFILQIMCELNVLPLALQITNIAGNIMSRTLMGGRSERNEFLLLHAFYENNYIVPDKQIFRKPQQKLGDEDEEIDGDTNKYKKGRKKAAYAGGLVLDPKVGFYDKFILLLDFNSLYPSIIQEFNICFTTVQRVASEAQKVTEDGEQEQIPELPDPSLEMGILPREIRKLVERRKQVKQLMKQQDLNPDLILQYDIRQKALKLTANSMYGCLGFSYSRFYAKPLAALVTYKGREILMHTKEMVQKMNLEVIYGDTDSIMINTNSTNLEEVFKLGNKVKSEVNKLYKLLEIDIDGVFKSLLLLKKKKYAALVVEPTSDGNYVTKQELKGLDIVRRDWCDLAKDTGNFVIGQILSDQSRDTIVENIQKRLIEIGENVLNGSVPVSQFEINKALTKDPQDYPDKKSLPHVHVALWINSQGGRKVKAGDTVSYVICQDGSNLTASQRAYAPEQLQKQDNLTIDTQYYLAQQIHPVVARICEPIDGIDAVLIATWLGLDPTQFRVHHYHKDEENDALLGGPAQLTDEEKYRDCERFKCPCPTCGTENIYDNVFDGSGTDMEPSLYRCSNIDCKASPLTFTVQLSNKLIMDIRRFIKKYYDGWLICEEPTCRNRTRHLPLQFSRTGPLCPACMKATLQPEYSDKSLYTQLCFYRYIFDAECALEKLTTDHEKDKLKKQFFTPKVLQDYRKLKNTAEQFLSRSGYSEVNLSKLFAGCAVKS

[1] = target: woodchuck hepatitis virus DNA polymerase (Woodchuck hepatitis B virus, UniProt P03160); experiment: Inhibition of woodchuck hepatitis virus DNA polymerase by triphosphates; format: biochemical; conditions: read-out: WHB DNA Pol IC50
Chain of woodchuck hepatitis virus DNA polymerase (P03160 whole entry): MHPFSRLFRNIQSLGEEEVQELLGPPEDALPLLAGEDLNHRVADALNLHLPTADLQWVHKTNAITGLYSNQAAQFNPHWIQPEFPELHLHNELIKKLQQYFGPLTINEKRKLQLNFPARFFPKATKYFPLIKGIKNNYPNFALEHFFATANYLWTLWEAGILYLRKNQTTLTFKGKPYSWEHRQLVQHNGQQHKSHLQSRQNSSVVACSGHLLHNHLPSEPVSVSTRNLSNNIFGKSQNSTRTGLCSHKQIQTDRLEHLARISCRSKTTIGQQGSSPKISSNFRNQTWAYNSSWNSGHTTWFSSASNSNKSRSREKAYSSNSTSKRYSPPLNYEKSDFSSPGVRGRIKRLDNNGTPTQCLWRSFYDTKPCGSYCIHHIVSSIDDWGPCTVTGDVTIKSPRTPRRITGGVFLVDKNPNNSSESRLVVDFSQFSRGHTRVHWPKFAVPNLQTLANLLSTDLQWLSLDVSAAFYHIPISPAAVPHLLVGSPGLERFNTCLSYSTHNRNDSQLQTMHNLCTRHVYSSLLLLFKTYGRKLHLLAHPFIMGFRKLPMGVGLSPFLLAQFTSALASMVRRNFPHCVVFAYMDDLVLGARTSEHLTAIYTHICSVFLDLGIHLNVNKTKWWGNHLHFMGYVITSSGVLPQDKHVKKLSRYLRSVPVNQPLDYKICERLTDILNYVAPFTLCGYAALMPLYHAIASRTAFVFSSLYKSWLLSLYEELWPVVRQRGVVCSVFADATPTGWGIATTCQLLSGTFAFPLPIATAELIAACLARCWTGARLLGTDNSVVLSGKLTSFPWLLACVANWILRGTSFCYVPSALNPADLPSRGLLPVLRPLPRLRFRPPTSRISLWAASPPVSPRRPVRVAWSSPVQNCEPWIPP

[2] = Toxicity analysis by uptake of neutral red dye in 2.2.15 cell cultures; conditions: human, Cytotoxicity IC50, Table 2; Hep G-2 (2.2.15) cells
Method: (§1) Toxicity analyses were performed in order to assess whether any observed antiviral effects were due to a general effect on cell viability. The method used was based on the uptake of neutral red dye, a standard and widely used assay for cell viability in a variety of virus-host systems, including HSV (herpes simplex virus) and HIV. The test compounds were used in the form of 40 mM stock solutions in DMSO (frozen on dry ice). Daily aliquots of the test samples were made and frozen at −20° C. so that each individual aliquot would be subjected to a single freeze-thaw cycle. The daily test aliquots were thawed, suspended into culture medium at room temperature and immediately added to the cell cultures. The compounds were tested at 0.01 to 10 μM for antiviral activity. The compounds were tested for toxicity at concentrations from 1 to 300 μM.
(§2) Toxicity analyses were performed in 96-well flat bottomed tissue culture plates. Cells for the toxicity analyses were cultured and treated with test compounds with the same schedule as used for the antiviral evaluations. Each compound was tested at 4 concentrations, each in triplicate cultures. Uptake of neutral red dye was used to determine the relative level of toxicity. The absorbance of internalized dye at […] (A510) was used for the quantitative analysis. Values are presented as a percentage of the average A510 values (± standard deviations) in 9 separate cultures of untreated cells maintained on the same 96-well plate as the test compounds.

Hepatitis B virus = experiment: Inhibition of HBV replication in transfected HepG-2 (2.2.15) cells (HBV virion DNA and replicative intermediates, blot hybridization); format: cell-based; conditions: for Inhibition of HBV replication (depression of HBV virion DNA and HBV RI), in words: 2.2.15 cells; for Selectivity Index IC50/EC90 RI: cytotoxicity IC50 / RI EC90; for Selectivity Index IC50/EC90 Virion: cytotoxicity IC50 / virion EC90
Method: The assay used herein to evaluate the ability of the disclosed compounds to inhibit the replication of HBV is described in detail in Korba and Gerin, Antiviral Res. 19: 55-70 (1992). […] The toxicity and anti-HBV activity of (−)-β-L-2-hydroxymethyl-5-(5-fluorocytosin-1-yl)-1,3-oxathiolane ((−)-β-L-FTC) and β-D-2′,3′-dideoxycytidine (β-D-ddC) are included as controls. The other compounds disclosed herein can be evaluated similarly.
The antiviral evaluations were performed on two separate passages of cells, two cultures per passage (4 cultures total). All wells, in all plates, were seeded at the same density and at the same time.
(Korba and Gerin, Antiviral Res. 19: 55-70, 1992). The levels of integrated HBV DNA in each cellular DNA preparation (which remain constant on a per cell basis in these experiments) were used to calculate the levels of intracellular HBV DNA forms, thereby eliminating technical variations inherent in the blot hybridization assays.
as §1

[3] = tested on: 2.2.15 cells (HepG2 cells transformed with hepatitis virion); experiment: Toxicity analysis by uptake of neutral red dye in 2.2.15 cell cultures
Method: as §1, §2

[4] = read-out: Cytotoxity IC50 ± SD, Table 1, neutral red dye uptake, 2.2.15 cells
[5] = Table 1, extracellular DNA, transfected HEPG-2 (2.2.15) cells, read-out: HBV viron EC90 ± SD
[6] = Table 1, replicative intermediates (intracellular DNA), transfected HEPG-2 (2.2.15) cells, read-out: HBV RI EC50 ± SD
[7] = Table 1, replicative intermediates (intracellular DNA), transfected HEPG-2 (2.2.15) cells, read-out: HBV RI EC90 ± SD

SMILES: Nc1nc(=O)n([C@@H]2CC[C@H](COP(=O)(O)OP(=O)(O)OP(=O)(O)O)O2)cc1F [β-L-5FDDCTP]
Ki (human DNA polymerase β): > 100 µM | Ki (human DNA polymerase α): > 100 µM | IC50 [1]: 2 µM

SMILES: Cc1cn([C@@H]2CC(N=[N+]=[N-])[C@H](CO)O2)c(=O)[nH]c1=O (stereo partly drawn) [β-L-AZT, 1-(3-Azido-2-3-dideoxy-β-L-erythro-pentofuranosyl) thymine]
IC50 [2]: 1000 µM | EC50 (Hepatitis B virus; Hepatitis B virus, HepG2 2.2.15, read-out: HBV RI EC50, Table 2, replicative intermediates (intracellular DNA), transfected Hep G-2 (2.2.15) cells): > 10 µM | EC50 (Hepatitis B virus; Hepatitis B virus, HepG2 2.2.15, read-out: HBV Virion EC50, Table 2, extracellular DNA, transfected Hep G-2 (2.2.15) cells): > 10 µM

Ki (human DNA polymerase β): > 100 µM | Ki (human DNA polymerase α): > 100 µM | IC50 [1]: 0.2 µM
SMILES: Cc1cn([C@@H]2C[C@@H](N=[N+]=[N-])[C@H](COP(=O)(O)OP(=O)(O)OP(=O)(O)O)O2)c(=O)[nH]c1=O [β-L-AZTPP]

SMILES: Nc1ccn([C@@H]2CC[C@H](CO)O2)c(=O)n1 [β-L-DDC, 2′,3′-Dideoxy-β-L-cytidine]
IC50 [3, 4]: 493 ± 64 µM | Inhibition of HBV replication (depression of HBV virion DNA and HBV RI), in words (Hepatitis B virus): potent inhibitors of HBV replication | Selectivity Index IC50/EC90 RI (Hepatitis B virus; Table 1): 274 | Selectivity Index IC50/EC90 Virion (Hepatitis B virus; Table 1): 448 | EC50 (Hepatitis B virus; Table 1, extracellular DNA, transfected HEPG-2 (2.2.15) cells, read-out: HBV viron EC50 ± SD): 0.033 ± 0.003 µM | EC90 (Hepatitis B virus; [5]): 1.1 ± 0.2 µM | EC50 (Hepatitis B virus; [6]): 0.107 ± 0.012 µM | EC90 (Hepatitis B virus; [7]): 1.8 ± 0.2 µM

SMILES: Nc1nc(=O)n([C@@H]2CC[C@H](CO)O2)cc1F [β-L-FDDC, 2′,3′-Dideoxy-β-L-5-fluorocytidine]
IC50 [3, 4]: 438 ± 57 µM | Inhibition of HBV replication (depression of HBV virion DNA and HBV RI), in words (Hepatitis B virus): potent inhibitors of HBV replication | Selectivity Index IC50/EC90 RI (Hepatitis B virus; Table 1): 91 | Selectivity Index IC50/EC90 Virion (Hepatitis B virus; Table 1): 1,460 | EC90 (Hepatitis B virus; [5]): 0.3 ± 0.03 µM | EC50 (Hepatitis B virus; [6]): 2.8 ± 0.4 µM | EC90 (Hepatitis B virus; [7]): 4.8 ± 0.6 µM

SMILES: Nc1ncnc2c1ncn2[C@@H]1CC[C@H](COP(=O)(O)OP(=O)(O)OP(=O)(O)O)O1 [β-L-ddATP]
Ki (human DNA polymerase β): > 100 µM | Ki (human DNA polymerase α): > 100 µM | IC50 [1]: 2.1 µM

SMILES: Nc1ncnc2c1ncn2[C@@H]1CC[C@H](CO)O1 [β-L-ddA]
IC50 ([3]; read-out: Cytotoxicity IC50, Table 2, Hep G-2 (2.2.15) cells): 250 µM | Selectivity Index IC50/EC50 RI (Hepatitis B virus; Table 2, cytotoxicity IC50 / RI EC50): 50 | Selectivity Index IC50/EC50 Virion (Hepatitis B virus; Table 2, cytotoxicity IC50 / virion EC50): 50 | EC50 (Hepatitis B virus; Table 2, extracellular DNA, transfected Hep G-2 (2.2.15) cells, read-out: HBV Virion EC50): 5 µM | EC50 (Hepatitis B virus; Table 2, replicative intermediates (intracellular DNA), transfected Hep G-2 (2.2.15) cells, read-out: HBV RI EC50): 5 µM
